Read-outs that look alike come from different tables or passages of the source.
Key:
TXNIP mRNA = TXNIP mRNA expression (RT-PCR) in THP1 cells under 25 mM glucose; assay type: cell-based, human; settings: THP1, 25 mM glucose, 5 uM compound, 72 h / three days (FIG. 13)
Description: FIGS. 9A-9B. FIG. 9A. […] THP1 cells were cultured in 25 mM glucose with the indicated concentrations of C1 for 72 h. Cell were collected for total RNA preparation. RT-PCR were performed and data shown are the mean+SEM from triplicates. Statistical analysis was performed using one-way ANOVA, *<0.0001. FIG. 9B. […] THP1 cells were cultured in 25 mM glucose and C1 (uM) as indicated for 72 hours and collected for total RNA preparation. RT-PCR was performed. Data shown are the mean+SEM from triplicates. Statistical analysis was performed using one-way ANOVA: *<0.02; **<0.0001.
FIG. 13. C1 analogs affects TXNIP mRNA expression in THP1 cells. THP1 cells were cultured in 25 mM glucose with 5 uM of compounds for 72 h. Total RNA was collected and RT-PCR was performed in triplicate and data shown are the mean+SEM. Statistical analysis was performed using one-way ANOVA: *<0.0001.
RNA extraction and quantitative RT-PCR. RNA was extracted using the Direct-zol™ RNA MiniPrep Plus (Zymo Research). […] Diluted cDNA was quantified using real-time PCR performed with Power SYBR Green qPCR MasterMix (Applied Biosystem) and 7500 real-time PCR system (Applied Biosystems). […]
RNA extraction and quantitative RT-PCR. […] Diluted cDNA was quantified using real-time PCR performed with Power SYBR Green qPCR MasterMix (Applied Biosystem) and 7500 real-time PCR system (Applied Biosystems). […]

TXNIP-TRX complex [1] = biological target: T1, TXNIP-TRX complex (Homo sapiens, UniProt Q9H3M7); test: Co-IP using extracts from high glucose treated THP1 cells in the presence of compounds; assay type: biochemical; settings: extracts of THP1 cells treated with 25 mM glucose 3 days; compounds added to extract (5 uM)
T1 construct: Co-immunoprecipitation (Co-IP) of TXNIP with TRX in THP 1 monocytes cells treated with compounds under high glucose condition; endogenous in cells; host or cells: THP1 human monocytes cultured in 25 mM glucose
T1 sequence (Q9H3M7 1-391): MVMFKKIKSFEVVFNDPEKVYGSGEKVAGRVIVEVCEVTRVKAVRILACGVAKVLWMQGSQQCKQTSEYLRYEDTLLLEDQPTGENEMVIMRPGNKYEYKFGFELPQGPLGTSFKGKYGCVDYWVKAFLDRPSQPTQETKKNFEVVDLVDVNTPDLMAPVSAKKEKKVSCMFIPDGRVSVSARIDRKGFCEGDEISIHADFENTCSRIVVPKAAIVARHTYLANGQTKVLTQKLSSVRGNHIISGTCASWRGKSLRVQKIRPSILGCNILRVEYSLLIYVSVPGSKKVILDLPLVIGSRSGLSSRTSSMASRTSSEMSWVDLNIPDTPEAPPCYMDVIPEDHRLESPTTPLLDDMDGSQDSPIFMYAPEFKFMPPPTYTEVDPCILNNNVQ
Description: Assay 2: Co-IP using extracts from THP 1 cells treated high glucose and in the presence of compounds. In this assay, TXNIP is already highly expressed (because the cells are treated with HG), we assume there is high concentration of TXNIP/TRX complexes in the cell extract. Co-IPs were done in these extracts through adding TRX antibody and compounds. If a compound is able to break the (pre-formed) TXNIP/TRX complex, there will be a reduced signal (band intensity) in the assay.
Co-IP with THP1 high glucose treated extract in the presence of the compounds. THP1 cells were treated with 25 mM glucose for 3 days, the cell extract were prepared. Them 300 ul extract were used for TP. Compounds were added to 5 uM Co-IP were followed according to the Co-IP protocol.
(§1) 1. Transfer the cultured cells from the culture dish to a 15-mL conical tube. 2. Centrifuge at 500×g for 2 min at 4° C. and remove the supernatant. 3. Wash with ice-cold PBS and centrifuge at 500×g for 2 min at 4° C. Remove the supernatant. 4. Repeat Step 3 twice.
5. Resuspend the cell pellet in ice-cold cell lysis buffer (1 mL per 1×10^7 cells) and incubate on ice for 10 min. 6. […]
(§2) Note: Pre-clearing the lysate is recommended to reduce the non-specific binding. However, if the protein is detected by western blotting, pre-clearing may not be necessary unless a contaminating protein is interfering with visualization of the protein of interest. […]

TXNIP-TRX complex [2] = biological target: T1, TXNIP-TRX complex; test: Co-IP of TXNIP with TRX in THP1 monocytes treated with compounds under high glucose; assay type: cell-based; settings: THP1 cells, compounds added to cells in culture overnight, glucose to 25 mM, 72-96 h; anti-TRX IP
Description: FIGS. 4A-4B. Co-IP with anti-TRX in THP 1 cells treated with compounds under high glucose condition. THP1 cells were treated by 10 uM compounds over night, then glucose was added up to 25 mM. The cells were cultured for 72-96 h. Cell extracts were prepared using cell extract buffer (Thermo Fisher Scientific) and Co-IP were performed with mouse anti-TRX (abcam).
Assay 1: Co-immunoprecipitation (Co-IP) of TXNIP with TRX in THP 1 monocytes cells treated with compounds under high glucose condition. In this assay, we looked for compounds that can interfere with the interaction between TXNIP and TRX in THP-1 monocytes treated with HG. So here compounds are added to cells in culture. […] So we picked the candidates only if the results are repeatable.
Co-IP with compounds treated THP1 under high glucose condition. THP1 cells were treated with compounds (2.5 uM) overnight and glucose was add to 25 mM and culture for 3-5 days, then coIP were carried using co-IP protocol.
as §1
5. Resuspend the cell pellet in ice-cold cell lysis buffer (1 mL per 1×10^7 cells) and incubate on ice for 10 min. 6. Sonicate cells in ice bath three times for 5 second pulses each. 7. Centrifuge at 13,000×g at 4° C. for 10 min, and transfer the supernatant to a fresh tube. Store the tube on ice for further use, or for long storage at −80° C.
8. Resuspend the magnetic beads by pipetting up and down for several times. 9. Transfer 20 μL of bead slurry to a fresh tube. Place the tube in a magnetic separation rack […]. Carefully remove the supernatant once the solution is clear. 10. […]
as §2

TXNIP = settings: as reported in the literature, cited from earlier work

Row | Compound | TXNIP mRNA expression (TXNIP mRNA) | effect on pre-formed TXNIP/TRX complex (co-IP band intensity) (TXNIP-TRX complex [1]) | HG-induced TXNIP-TRX co-IP band intensity (TXNIP-TRX complex [2]) | TXNIP expression (TXNIP) | TXNIP expression (TXNIP; listed as Metformin)
1 | CC(=O)Nc1ccc(NC(=O)C(C)N2C(=O)c3ccncc3C2=O)cc1 (centres unmarked) [Compound A31] | displayed significant inhibitory effects on TXNIP mRNA expression | – | – | – | –
2 | CN(C)C(=N)N=C(N)N [metformin, reference compound] | – | does not have any effect on TXNIP/TRX complex | reduces the intensity of the band showing TXNIP-TRX binding | reduce TXNIP expression | can reduce the expression of TXNIP through the AMPK pathway

From patent US11974990B2, “TXNIP-TRX complex inhibitors and methods of using the same” (City of Hope, priority 2018, dated 2024)
